The source of these data is patent US7560466B2, “Methods of treating or preventing autoimmune diseases with 2,4-pyrimidinediamine compounds” (Rigel Pharmaceuticals, Inc., priority 2003, dated 2009).

Counter-ions that a name gives are not always drawn. Like-named read-outs stand apart in the source and are kept apart here.

For the experiment, the system named is cultured human mast cells (CHMC), IgE-induced degranulation. As to the kind of experiment: CHMC low cell density IgE activation: tryptase assay. The class given is cell-based. The settings on record: CHMC low cell density. The protocol: Inhibition of degranulation was measured at both low and high cell density by quantifying the release of the granule specific factors tryptase, histamine and hexosaminidase. Inhibition of release and/or synthesis of lipid mediators was assessed by measuring the release of leukotriene LTC4 and inhibition of release and/or synthesis of cytokines was monitored by quantifying TNF-α, IL-6 and IL-13. Tryptase and hexosaminidase were quantified using fluorogenic substrates as described in their respective examples. […] The protocols of the various assays are provided below.
A second phase is performed to convert the expanded CD34-negative progenitor cells into differentiated mucosal mast cells. These mucosal cultured human mast cells (“CHMC”) are derived from CD34+ cells isolated from umbilical cord blood and treated to form a proliferated population of CD34-negative progenitor cells, as described above. […] Also, the cytokine composition of the medium was modified such that it contained SCF (200 ng/mL) and recombinant human IL-6 (200 ng/mL; Peprotech, Catalog No. 200-06 reconstituted to 100 ug/mL in sterile 10 mM acetic acid) (“CM/SCF/IL-6 medium”).
Pellet CHMC cells (980 rpm, 10 min) and resuspend in pre-warmed MT. Add 65 ul of cells to each 96-well plate. Depending on the degranulation activity for each particular CHMC donor, load 1000-1500 cells/well. Mix four times followed by a 1 hr incubation at 37° C. […] Stimulate cells by adding 25 ul of 6× anti-IgE solution to the appropriate plates. Add 25 ul MT to un-stimulated control wells. Mix twice following addition of the anti-IgE. Incubate at 37° C. for 30 minutes. […] Spin plates at 1000 rpm for 10 min to pellet cells. Transfer 25 ul of supernatant to a 96-well black bottom plate and add 100 ul of freshly diluted tryptase substrate solution to each well. Incubate plates at room temperature for 30 min.
In Table 1, all reported values are IC50s (in μM). […] In Table 1, all reported values are IC50s (in μM).

Where [1] appears, read: 3pt, read-out: LD Tryptase, CHMC, IgE, 3pt.
[2] abbreviates: 8pt, read-out: LD Tryptase, CHMC, IgE, 8pt.

`COc1cc(Nc2ncc(F)c(Nc3ccc4c(n3)NC(=O)C(C)(C)O4)n2)cc(OC)c1OC.O=S(=O)(O)c1ccc(O)cc1` [Compound 676, N4-(2,2-Dimethyl-3-oxo-4H-5-pyrid[1,4]oxazin-6-yl)-5-fluoro-N2-(3,4,5-trimethoxyphenyl)-2,4-pyrimidinediamine 4-Hydroxybenzenesulfonic Acid Salt]: the IC50 by setting is: under setting [1], below 10 µM; under setting [2], below 10 µM.

In the case of `COc1cc(Nc2ncc(F)c(Nc3ccc4c(n3)NC(=O)C(C)(C)O4)n2)cc(OC)c1OC.O=S(=O)(O)c1cccnc1` [Compound 678, N4-(2,2-Dimethyl-3-oxo-4H-5-pyrid[1,4]oxazin-6-yl)-5-fluoro-N2-(3,4,5-trimethoxyphenyl)-2,4-pyrimidinediamine 0.5 Pyridine-3-sulfonic Acid Salt], the IC50 was below 10 µM under setting [1] and below 10 µM under setting [2].

`CCc1ccc(S(=O)(=O)O)cc1.COc1cc(Nc2ncc(F)c(Nc3ccc4c(n3)NC(=O)C(C)(C)O4)n2)cc(OC)c1OC` [Compound 679, N4-(2,2-Dimethyl-3-oxo-4H-5-pyrid[1,4]oxazin-6-yl)-5-fluoro-N2-(3,4,5-trimethoxyphenyl)-2,4-pyrimidinediamine p-Ethylbenzenesulfonic Acid Salt]: the IC50 under setting [1] is below 10 µM and the IC50 under setting [2] was below 10 µM.

Regarding `CNC(=O)Cn1ccc2cc(Nc3ncc(F)c(Nc4ccc5c(n4)NC(=O)C(C)(C)O5)n3)ccc21` [Compound 683, N4-(2,2-Dimethyl-3-oxo-4H-5-pyrid[1,4]oxazin-6-yl)-5-fluoro-N2-[1-(N-methylamino)carbonylmethyleneindol-5-yl]-2,4-pyrimidinediamine], the IC50 runs as follows: under setting [1], below 10 µM; under setting [2], below 10 µM.

On to `Cc1cc(Nc2ncc(F)c(Nc3ccc4c(n3)NC(=O)C(C)(C)O4)n2)cc(C)c1Cl` [Compound 684, N2-(4-Chloro-3,5-dimethylphenyl)-N4-(2,2-dimethyl-3-oxo-4H-5-pyrid[1,4]oxazin-6-yl)-5-fluoro-2,4-pyrimidinediamine p-Toluenesulfonic Acid Salt], for which the IC50 under setting [1] is below 10 µM.

For `CC1(C)Oc2ccc(Nc3nc(Nc4cc(Cl)c(O)c(Cl)c4)ncc3F)nc2NC1=O` [Compound 686, N4-(2,2-Dimethyl-3-oxo-4H-5-pyrid[1,4]oxazin-6-yl)-N2-(3,5-dichloro-4-hydroxyphenyl)-5-fluoro-2,4-pyrimidinediamine], the IC50 under setting [1] is below 10 µM and the IC50 under setting [2] is below 10 µM.

On to `CN1C(=O)C(C)(C)Oc2ccc(Nc3ncc(F)c(Nc4ccc5c(n4)N(C)C(=O)C(C)(C)O5)n3)nc21` [Compound 687, N2,N4-Bis(3-oxo-2,2,4-trimethyl-5-pyrid[1,4]oxazin-6-yl)-5-fluoro-2,4-pyrimidinediamine], for which the IC50 under setting [1] is below 10 µM.

As to `COC(=O)CN1C(=O)C(C)(C)Oc2ccc(Nc3ccnc(Nc4ccc5c(n4)N(CC(=O)OC)C(=O)C(C)(C)O5)n3)nc21` [Compound 688, N2,N4-Bis(2,2-dimethyl-4-carbomethoxymethyl-3-oxo-5-pyrid[1,4]oxazin-6-yl)-2,4-pyrimidinediamine], under setting [1], the IC50 was above 10 µM.

`COc1cc(Nc2ncc(F)c(Nc3ccc4c(n3)N(C)C(=O)C(C)(C)O4)n2)cc(OC)c1OC` [Compound 689, 5-Fluoro-N4-(3-oxo-2,2,4-trimethyl-5-pyrid[1,4]oxazin-6-yl)-N2-(3,4,5-trimethoxyphenyl)-2,4-pyrimidinediamine]: the IC50 under setting [2] was below 10 µM.

Consider `COC(=O)CN1C(=O)C(C)(C)Oc2ccc(Nc3nc(Nc4cc(OC)c(OC)c(OC)c4)ncc3F)nc21` [Compound 690, N4-(2,2-Dimethyl-4-carbomethoxymethyl-3-oxo-5-pyrid[1,4]oxazin-6-yl)-5-fluoro-N2-(3,4,5-trimethoxyphenyl)-2,4-pyrimidinediamine], for which the IC50 under setting [2] is below 10 µM.

`COC(=O)CN1C(=O)C(C)(C)Oc2ccc(N(CC(=O)OC)c3nc(Nc4cc(OC)c(OC)c(OC)c4)ncc3F)nc21` [Compound 691, N4-(2,2-Dimethyl-4-carbomethoxymethyl-3-oxo-5-pyrid[1,4]oxazin-6-yl)-5-fluoro-N4-carbomethoxymethyl-N2-(3,4,5-trimethoxyphenyl)-2,4-pyrimidinediamine]: the IC50 under setting [1] was below 10 µM.

With `COc1cc(Nc2ncc(F)c(Nc3ccc4c(n3)NC(=O)C(C)(C)O4)n2)cc(OC)c1OCCN1CCOCC1` [Compound 692, N2-[3,5-Dimethoxy-4-(2-(N-morpholino)ethyloxo)phenyl]-N4-(2,2-dimethyl-3-oxo-4H-5-pyrid[1,4]oxazin-6-yl)-5-fluoro-2,4-pyrimidinediamine], the IC50 is below 10 µM under setting [1] and below 10 µM under setting [2].

On to `CC1(C)Oc2ccc(Nc3ncc(F)c(Nc4ccc5c(n4)NC(=O)C(C)(C)O5)n3)nc2NC1=O` [Compound 693, N2,N4-Bis(2,2-dimethyl-3-oxo-4H-5-pyrid[1,4]oxazin-6-yl)-5-fluoro-2,4-pyrimidinediamine], for which, under setting [1], the IC50 was below 10 µM.

Take `Cc1nn(C)c2cc(Nc3ncc(F)c(Nc4ccc5c(n4)NC(=O)C(C)(C)O5)n3)ccc12` [Compound 812, N2-(1,3-Dimethylindazol-6-yl)-N4-(2,2-dimethyl-3-oxo-4H-5-pyrid[1,4]oxazin-6-yl)-5-fluoro-2,4-pyrimidinediamine]: the IC50 under setting [2] was below 10 µM.

For `Cc1n[nH]c2cc(Nc3ncc(F)c(Nc4ccc5c(n4)NC(=O)C(C)(C)O5)n3)ccc12` [Compound 813, N4-(2,2-Dimethyl-3-oxo-4H-5-pyrid[1,4]oxazin-6-yl)-5-fluoro-N2-(3-methyl-1H-indazol-6-yl)-2,4-pyrimidinediamine], under setting [2], the IC50 was below 10 µM.

On to `COCCCn1ncc2cc(Nc3ncc(F)c(Nc4ccc5c(n4)NC(=O)C(C)(C)O5)n3)ccc21` [Compound 814, N4-(2,2-Dimethyl-3-oxo-4H-5-pyrid[1,4]oxazin-6-yl)-5-fluoro-N2-[1-(3-methoxypropyl)indazol-5-yl]-2,4-pyrimidinediamine], for which the IC50 under setting [2] is below 10 µM.

For the compound `CC1(C)Oc2ccc(Nc3nc(Nc4ccc5c(cnn5CCCN5C(=O)c6ccccc6C5=O)c4)ncc3F)cc2NC1=O` [Compound 817, N4-(2,2-Dimethyl-3-oxo-4H-benz[1,4]oxazin-6-yl)-5-fluoro-N2-[1-[3-(N-phthalimidopropyl)]indazol-5-yl]-2,4-pyrimidinediamine], under setting [2], the IC50 was below 10 µM.

`C[C@@H]1Oc2ccc(Nc3nc(Nc4ccc5c(cnn5CCCN5C(=O)c6ccccc6C5=O)c4)ncc3F)cc2NC1=O` [Compound 818, (S)-5-Fluoro-N4-(2-methyl-3-oxo-2H,4H-benz[1,4]oxazin-6-yl)-N2-[1-[3-(N-phthalimidopropyl)]indazol-5-yl]-2,4-pyrimidinediamine]: the IC50 under setting [2] is below 10 µM.

In the case of `Cn1nc(N)c2cc(Nc3ncc(F)c(Nc4ccc5c(n4)NC(=O)C(C)(C)O5)n3)ccc21` [Compound 837, N2-(3-A mino-1-methylindazol-5-yl)-N4-(2,2-dimethyl-3-oxo-4H-5-pyrid[1,4]oxazin-6-yl)-5-fluoro-2,4-pyrimidinediamine], the IC50 by setting is: under setting [1], below 10 µM; under setting [2], below 10 µM.

As to `CC1(C)Oc2ccc(Nc3nc(Nc4ccc5c(cnn5CCCO)c4)ncc3F)nc2NC1=O` [Compound 838, N4-(2,2-Dimethyl-3-oxo-4H-5-pyrid[1,4]oxazin-6-yl)-5-fluoro-N2-[1-(3-hydroxypropyl)indazol-5-yl]-2,4-pyrimidinediamine], the IC50 runs as follows: under setting [1], below 10 µM; under setting [2], below 10 µM.

Regarding `COCCCn1ncc2ccc(Nc3ncc(F)c(Nc4ccc5c(n4)NC(=O)C(C)(C)O5)n3)cc21` [Compound 839, N4-(2,2-Dimethyl-3-oxo-4H-5-pyrid[1,4]oxazin-6-yl)-5-fluoro-N2-[1-(3-methoxypropyl)indazol-6-yl]-2,4-pyrimidinediamine], the IC50 reads like this: under setting [1], below 10 µM; under setting [2], below 10 µM.

As to `CC1(C)Oc2ccc(Nc3nc(Nc4ccc5c(cnn5CCCNS(=O)(=O)C(F)(F)F)c4)ncc3F)nc2NC1=O` [Compound 844, N4-(2,2-Dimethyl-3-oxo-4H-5-pyrid[1,4]oxazin-6-yl)-5-fluoro-N2-[1-[3-(N-trifluoromethylsulfonylamino)propyl]indazol-5-yl]-2,4-pyrimidinediamine], the IC50 under setting [2] was above 10 µM.

Consider `CC(C)(C)C(=O)NCCCn1ncc2cc(Nc3ncc(F)c(Nc4ccc5c(n4)NC(=O)C(C)(C)O5)n3)ccc21` [Compound 852, N4-(2,2-Dimethyl-3-oxo-4H-5-pyrido[1,4]oxazin-6-yl)-5-fluoro-N2-[1-(3-pivalamidopropyl)indazol-5-yl]-2,4-pyrimidinediamine], for which the IC50 under setting [2] was below 10 µM.

With `CC1(C)Oc2ccc(Nc3nc(Nc4ccc5c(cnn5CCCN5C(=O)CCC5=O)c4)ncc3F)cc2NC1=O` [Compound 855, N4-(2,2-Dimethyl-3-oxo-4H-benz[1,4]oxazin-6-yl)-5-fluoro-N2-[1-[3-(N-succinimidopropyl)]indazol-5-yl]-2,4-pyrimidinediamine], the IC50 is, setting by setting: under setting [1], below 10 µM; under setting [2], below 10 µM.
